{
  "source": "patent US20230277591A1",
  "about": "(JULIUS-MAXIMILIANS-UNIVERSITÄT WÜRZBURG, priority 2017, published 2023)",
  "molecules": {"B1": {"name": "BV10 mAb: anti-FLT3 monoclonal antibody BV10 (Biolegend) used in ADCC assay (antibody, V domains shown)", "VH": "QVQLKQSGPGLVQPSQSLSITCTVSGFSLTNYGLHWVRQSPGKGLEWLGVIWSGGSTDYNAAFISRLSISKDNSKSQVFFKMNSLQADDTAIYYCARKGGIYYANHYYAMDYWGQGTSVTVSS", "VL": "DIVMTQSPSSLSVSAGEKVTMSCKSSQSLLNSGNQKNYMAWYQQKPGQPPKLLIYGASTRESGVPDRFTGSGSGTDFTLTISSVQAEDLAVYYCQNDHSYPLTFGAGTKLELKR"}},
  "key": {"MOLM-13 AML cells [1]": {"test_system": "MOLM-13 AML cells", "experiment": "MOLM-13 xenograft model of AML in NSG mice", "format": "in vivo, mouse", "description": "(§1) All experiments were approved by the Institutional Animal Care and Use Committees of the participating institutions. NOD.Cg-Prkdc^scid Il2rg^tm1Wjl/SzJ (NSG) mice (female, 6-8 week old) were purchased from Charles River or bred in-house. Mice were inoculated with 1×10^6 ffluc_GFP^+ MOLM-13 AML cells by tail vein injection on day 0, and received a single dose of 5×10^6 T cells (in 200 µL of PBS/0.5% FCS) by tail vein injection on day 7. Crenolanib [15 mg/kg; 200 µL of 30% glycerol formal (Sigma Aldrich, Munich, Germany)] was administered intraperitoneally (i.p.) Monday-Friday for 3 consecutive weeks. AML progression/regression was assessed by serial bioluminescence imaging following i.p. administration of D-luciferin substrate (0.3 mg/g body weight) (Biosynth, Staad, Switzerland) using an IVIS Lumina imaging system (Perkin Elmer, Waltham, Massachusetts). Data was analyzed using Living Image software (Perkin Elmer).\nas §1, with “Crenolanib [15 mg/kg; 200 µL of 30% glycerol formal (Sigma Aldrich, Munich, Germany)] was administered intraperitoneally (i.p.) Monday-Friday for 3 consecutive weeks.” left out"}, "MOLM-13 AML cells [2]": {"test_system": "MOLM-13 AML cells", "experiment": "Flow cytometric analysis of surface expression (FLT3, CD33, CD123) after FLT3 inhibitor treatment, MOLM-13", "format": "cell-based, human", "settings": "for time to decrease of FLT3 expression to baseline levels after withdrawal of drug: MOLM-13, midostaurin: baseline or slightly below baseline", "description": "(§2) Cell surface expression of FLT3 (CD135) was analyzed using a conjugated mouse-anti-human-FLT3 mAb (clone 4G8, BD Pharmagin, BD Biosciences, Germany) and mouse IgG1 isotype control (BD Pharmagin). In brief, 1×10^6 cells were washed, resuspended in 100 µL PBS/0.5% fetal calf serum and stained with 5 µL of anti-FLT3 mAb or isotype for 30 minutes at 4° C.\nA complete medium change was performed every 7 days, MOLM-13 cells adjusted to 1×10^6/mL medium and 2 mL of this cell suspension plated per well in […] (Costar, Corning, NJ). After 2-3 weeks of culture with 10 nM midostaurine, MOLM-13 cells were exposed to exponentially increasing concentration of midostaurine for next 8-10 weeks to reach 50 nM midostaurin."}, "MV4;11 AML cells [3]": {"test_system": "MV4;11 AML cells", "experiment": "Flow cytometric analysis of surface expression after FLT3 inhibitor treatment, MV4;11", "format": "cell-based, human", "description": "as §2"}, "THP-1 AML cells": {"test_system": "THP-1 AML cells", "experiment": "Flow cytometric analysis of FLT3 expression after FLT3 inhibitor treatment, THP-1", "format": "cell-based, human", "settings": "THP-1, wild-type FLT3", "description": "as §2"}, "[4]": {"test_system": "K562 erythro-myeloid leukemia", "experiment": "Flow cytometric analysis of FLT3 expression after FLT3 inhibitor treatment, K562", "format": "cell-based, human", "settings": "K562, wild-type FLT3", "description": "as §2"}, "[5]": {"test_system": "JeKo-1 mantle cell lymphoma", "experiment": "Flow cytometric analysis of FLT3 expression after FLT3 inhibitor treatment, JeKo-1", "format": "cell-based, human", "settings": "JeKo-1, wild-type FLT3", "description": "as §2"}, "MV4;11 AML cells [6]": {"test_system": "MV4;11 AML cells", "experiment": "Antibody-dependent cellular cytotoxicity (ADCC) assay", "format": "cell-based, human", "settings": "mAb 5000 ng/mL, PBMC 50:1, 24 h", "description": "MV4;11 cells were plated at a concentration of 1×10^6/mL in 1 mL per well in 24-well plates (Costar, Corning, NJ).\nMV4;11 AML cells transduced with firefly luciferase (ffluc) were utilized for ADCC assays. MV4;11 AML cells were pre-treated with FLT3 inhibitors for 7 days or were left untreated. Target cells were co-incubated with healthy donor derived PBMCs at an effector-to-target ratio of 50:1 in triplicate wells of 96-well flat-bottom plates in the presence of solvent control, IgG1 isotype control (5000 ng/mL) or anti-FLT3 BV10 mAb (5000 ng/mL) (Biolegend, London, UK). ADCC was determined in a bioluminescence-based assay after 24 hours^40. Luciferin substrate was added to the co-culture and the decrease in luminescence signal was measured using a luminometer (Tecan, Männedorf, Switzerland). The percentage of viable cells was calculated using the following formula: % viability = bioluminescence signal in the presence of effector cells and BV10 mAb (with or without FLT3 inhibitor pre-treatment) × 100 / bioluminescence signal in the control condition."}, "[7]": {"settings": "4G8 CAR (Example 1), crenolanib 15 mg/kg i.p."}},
  "note": "Entries after “also recorded” stand apart in the source; their conditions may differ.",
  "data": [
    {"molecule": "CC1(COc2ccc3c(c2)ncn3-c2ccc3cccc(N4CCC(N)CC4)c3n2)COC1", "note": "[crenolanib]", "values": [
      {"measurement": "overall response rate", "setting": "MOLM-13 AML cells [1]; 4G8 CAR (Example 1), 5×10^6 T cells day 7, crenolanib 15 mg/kg i.p., n=8 per group", "result": 0, "unit": "%"},
      {"measurement": "AML cells in peripheral blood, bone marrow and spleen at experiment endpoint", "setting": "MOLM-13 AML cells [1]; [7]", "result": "high degree of leukemia infiltration"},
      {"measurement": "antileukemia efficacy", "setting": "MOLM-13 AML cells [1]; [7]", "result": "only a minute antileukemia effect"},
      {"measurement": "FLT3 on MOLM-13 cells recovered from peripheral blood and bone marrow at experiment endpoint", "setting": "MOLM-13 AML cells [1]; crenolanib monotherapy 15 mg/kg i.p.", "result": "uniformly and strongly upregulated"},
      {"measurement": "FLT3 surface protein (MFI) compared to MOLM-13native", "setting": "MOLM-13 AML cells [2]; 10 nM midostaurin 2-3 weeks, 10 nM crenolanib 5 days, 1 nM quizartinib 5 days, p < 0.05", "result": "significantly higher levels"},
      {"measurement": "time to decrease of FLT3 expression to baseline levels after withdrawal of drug", "setting": "MOLM-13 AML cells [2]", "result": "≤ 2", "unit": "days"},
      {"measurement": "FLT3 expression upon re-exposure to the drug", "setting": "MOLM-13 AML cells [2]; MOLM-13 after withdrawal", "result": "increased again"},
      {"measurement": "CD33 expression on MOLM-13", "setting": "MOLM-13 AML cells [2]; inhibitor-treated vs native", "result": "not affected"},
      {"measurement": "CD123 expression on MOLM-13", "setting": "MOLM-13 AML cells [2]; inhibitor-treated vs native", "result": "not affected"},
      {"measurement": "FLT3 expression upon exposure", "setting": "MV4;11 AML cells [3]; MV4;11 (FLT3-ITD+/+)", "result": "increase"},
      {"measurement": "CD33 expression on MV4;11", "setting": "MV4;11 AML cells [3]; inhibitor-treated", "result": "not affected"},
      {"measurement": "CD123 expression on MV4;11", "setting": "MV4;11 AML cells [3]; inhibitor-treated", "result": "not affected"},
      {"measurement": "increase in FLT3 expression upon exposure", "setting": "THP-1 AML cells", "result": "did not occur"},
      {"measurement": "increase in FLT3 expression upon exposure", "setting": "[4]", "result": "did not occur"},
      {"measurement": "increase in FLT3 expression upon exposure", "setting": "[5]", "result": "did not occur"},
      {"measurement": "effect of the drug per se on (viability and) function of FLT3 CAR-T cells", "setting": "FLT3 CAR-T cells", "result": "not affected; also recorded: did not affect"}
    ]},
    {"molecule": "CO[C@@H]1[C@H](N(C)C(=O)c2ccccc2)C[C@H]2O[C@]1(C)n1c3ccccc3c3c4c(c5c6ccccc6n2c5c31)C(=O)NC4", "note": "[midostaurin]", "values": [
      {"measurement": "mice with leukemia reduction (response rate)", "setting": "MOLM-13 AML cells [1]; BV10 CAR (Example 3), midostaurin experiment, BL day 7 to day 11, n=4 per group", "result": 0, "unit": "%"},
      {"measurement": "MFI of FLT3 higher, mouse with lowest FLT3 expression vs mouse without drug", "setting": "MOLM-13 AML cells [1]; midostaurin 1 mg/kg i.p., bone marrow MOLM-13", "result": 30, "unit": "%"},
      {"measurement": "time to decrease of FLT3 expression to baseline levels after withdrawal of drug", "setting": "MOLM-13 AML cells [2]", "result": "≤ 2", "unit": "days"},
      {"measurement": "effect of the drug per se on (viability and) function of FLT3 CAR-T cells", "setting": "FLT3 CAR-T cells", "result": "not affected; also recorded: did not affect"}
    ]},
    {"molecule": "B1", "values": [
      {"measurement": "MV4;11 cells eliminated (ADCC)", "setting": "MV4;11 AML cells [6]; crenolanib-treated MV4;11 (10 nM, 7 days)", "result": 39, "unit": "%"},
      {"measurement": "MV4;11 cells eliminated (ADCC)", "setting": "MV4;11 AML cells [6]; midostaurin-treated MV4;11 (50 nM, 7 days)", "result": 26, "unit": "%"},
      {"measurement": "MV4;11 cells eliminated (ADCC)", "setting": "MV4;11 AML cells [6]; quizartinib-treated MV4;11 (1 nM, 7 days)", "result": 46, "unit": "%"},
      {"measurement": "MV4;11 cells eliminated (ADCC)", "setting": "MV4;11 AML cells [6]; without FLT3 inhibitor pre-treatment", "result": 13, "unit": "%"}
    ]}
  ]
}
